Bounds are passed on as bounds.

The conditions of data set [1]: cited from earlier work.
Data set [2] is described as follows: Pharmacokinetics and metabolism of Bp4eT in rats (literature). It is filed as in vivo.
The test system of data set [3] is HL-60 human promyelocytic leukemia cell line. Kind of data set: MTT proliferation/viability assay, HL-60. The settings on record: 72 h/37°C, mean ± S.D. It is filed as cell-based. The procedure: (§1) The MCF-7 human breast adenocarcinoma cell line was purchased from the European Collection of Cell Cultures (U.K.). The HL-60 human promyelocytic leukemia cell line, HCT116 human colorectal carcinoma cell line, H9c2 rat heart-derived myoblast cell line and 3T3 mouse embryo fibroblast line, were obtained from the American Type Culture Collection (VA, U.S.A.). Cells were cultured in Dulbecco's modified Eagle's medium (DMEM, Lonza, Switzerland) with or without (for MCF-7 cells only) phenol red, supplemented with 10% heat-inactivated fetal bovine serum (FBS; Lonza, Switzerland), 1% penicillin/streptomycin solution (Lonza, Switzerland) and 10 mM HEPES buffer (pH 7.0-7.6; Sigma-Aldrich, Germany). The HL-60 cell line was maintained in RPMI medium (Sigma-Aldrich, Germany) supplemented with 10% heat-inactivated FBS and 1% penicillin/streptomycin solution. All cell lines were cultured in 75 cm^2 tissue culture flasks (Switzerland) at 37°C in a humidified atmosphere of 5% CO2. Sub-confluent cells or, in the case of HL-60 cells, a cell suspension, were sub-cultured every 3-4 days.
(§2) Cells were seeded in 96-well plates for 24 h/37°C at a density of 5,000 (MCF-7), 10,000 (HL-60), 2,000 (HCT116) and 10,000 (3T3 and H9c2) cells/well. For 3T3 and H9c2 cells, the medium was changed to serum- and pyruvate-free DMEM 24 h prior to the experiments. Anti-proliferative and cytotoxicity effects of the compounds were studied at different concentrations after incubations for 72 h/37°C. Viabilities of cells were determined using MTT assays (Sigma-Aldrich, Germany) according to the manufacturer's instructions on a Tecan Infinite 200M plate reader (Tecan, Austria). The proliferation/viability of treated groups was expressed as a percentage of the untreated controls (100%).

The test system of data set [4] is H9c2 rat heart-derived myoblast cell line. Description: MTT proliferation/viability assay, H9c2. To be noted: 72 h/37°C, mean ± S.D., serum- and pyruvate-free DMEM. Type of data set: cell-based. The procedure: as §1, §2
For data set [5], the system named is cancer cell lines (HL-60, MCF-7 and HCT116). Kind of data set: MTT assay, cancer cell lines as a group. Type of data set: cell-based. To be noted: Homo sapiens, HL-60, MCF-7, HCT116, 72 h/37°C, read-out: IC50 against all cancer cell lines. The procedure:
as §1, §2

For data set [6], the system named is MCF-7 cells. Kind of data set: 59Fe mobilization from cells prelabeled with 59Fe-transferrin. It is filed as cell-based, human. The settings on record: MCF-7 prelabeled with 59Fe-transferrin, compounds 25 μmol·L^−1, 3 h/37°C. The procedure:
(§3) Iron chelation efficiency of the compounds at a concentration of 10 μmol·L^−1 was determined via 3 methods: (1) the calcein assay; (2) the ability of the ligands to induce ^59Fe mobilization from cells prelabeled with ^59Fe-transferrin; and (3) the efficacy of these agents to inhibit the uptake of ^59Fe from ^59Fe-transferrin [22, 38–40].
(§4) The fluorimetric calcein-AM assay was performed by established methods, as described previously. The Fe chelation efficiency of the metabolites in cells was expressed as a percentage of that of the parent chelator, Dp44mT or DpC (100%). For studies assessing the ability of these agents to induce ^59Fe mobilization and inhibit ^59Fe uptake from ^59Fe-transferrin by cells, human transferrin (Sigma-Aldrich, Germany) was labeled with ^59Fe (PerkinElmer, MA, USA) to generate ^59Fe-transferrin at a final specific activity of 500 pCi/pmol Fe, as previously described. The unbound ^59Fe was removed by exhaustive vacuum dialysis against a large excess of 0.15 M NaCl buffered to pH 7.4 with 1.4% NaHCO3 by standard methods.
(§5) To examine the ability of the studied substances to mobilize ^59Fe from MCF-7 cells or inhibit ^59Fe uptake from ^59Fe-transferrin, established techniques were utilized. For ^59Fe mobilization studies, cells were preincubated with ^59Fe-transferrin (0.75 μmol·L^−1) for 3 h/37°C, washed 4 times at 4°C on ice, and then reincubated with control medium or control medium containing the compounds (25 μmol·L^−1) for 3 h/37°C. The release of ^59Fe from the cells into the overlying medium was then examined by collecting both the cells and overlying medium and assessing ^59Fe levels using a γ-counter. For studies examining the ability of the agents to inhibit ^59Fe uptake from ^59Fe-transferrin, cells were incubated for 3 h/37°C with ^59Fe-transferrin (0.75 μmol·L^−1) in the presence or absence of the agents (25 μmol·L^−1), and then washed 4 times at 4°C on ice. The internalization of ^59Fe by cells was then assessed by incubation for 30 min/4°C with the general protease, Pronase (1 mg/mL), utilizing standard techniques. The amount of internalized ^59Fe in the presence of the agents was expressed as a percentage of ^59Fe internalized by control cells incubated in the presence of control media alone.

In data set [7] the test system is HCT116 human colorectal carcinoma cell line. Description: MTT proliferation/viability assay, HCT116. The settings on record: HCT-116, 72 h/37°C, mean ± S.D. It is filed as cell-based. As for the experimental part: as §1, §2
The nature of data set [8]: Long-term stability in plasma samples at -80°C. Type of data set: in vitro ADME, rat. To be noted: for Long-term stability: plasma, -80°C, 7 days. As for the experimental part: (§6) The UHPLC-MS/MS methods for quantitative assays were validated with respect to selectivity, linearity, precision, accuracy, stability, recovery, matrix effects and dilution integrity (see […]
Linearity was examined over the concentration ranges described in Supplementary Table 1 using a weighted (1/x 2) linear regression in GraphPad Prism 6 (v. 6.04, GraphPad Software […]
(§7) Stability was assessed at low, medium and high concentration levels. Long -term stability was assessed for plasma samples at -80°C over a period of 7 days (three aliquots per level; Supplementary Table 3). […]

Data set [9] deals with MCF-7 human breast adenocarcinoma cell line. Kind of data set: MTT proliferation/viability assay, MCF-7. It is filed as cell-based. To be noted: MCF7, 72 h/37°C, mean ± S.D. The procedure: as §1, §2
Data set [10] can be described thus: Post-preparative stability in the autosampler at 10°C. Type of data set: physicochemical. The settings on record: for Post-preparative stability: autosampler 10°C, 24 h. As for the experimental part: as §6
Supplementary Table 1-3). […]
as §7

The test system of data set [11] is MCF-7 cells. Kind of data set: Inhibition of internalized 59Fe uptake from 59Fe-transferrin. Type of data set: cell-based, human. To be noted: MCF-7, compounds 25 μmol·L^−1, 3 h/37°C. The procedure: as §3, §4, §5
In data set [12] the test system is 3T3 mouse embryo fibroblast line. Description: MTT proliferation/viability assay, 3T3. It is filed as cell-based. The settings on record: 72 h/37°C, mean ± S.D., serum- and pyruvate-free DMEM. As for the experimental part:
as §1, §2

The subject of data set [13] is cellular labile iron pools. Kind of data set: Fluorimetric calcein-AM assay of intracellular iron chelation. It is filed as cell-based. To be noted: 10 μmol·L^−1, parent Dp44mT or DpC. The procedure: as §3, §4
Data set [14] concerns non-cancer cell lines (H9c2 and 3T3). Description: MTT assay, non-cancer cell lines as a group. It is filed as cell-based. The settings on record: Rattus norvegicus, 72 h/37°C, read-out: IC50 towards non-cancer cells. The procedure:
as §1, with “All cell lines were cultured in 75 cm^2 tissue culture flasks (Switzerland) at 37°C in a humidified atmosphere of 5% CO2. Sub-confluent cells or, in the case of HL-60 cells, a cell suspension, were sub-cultured every 3-4 days.” left out
Cells were seeded in 96-well plates for 24 h/37°C at a density of 5,000 (MCF-7), 10,000 (HL-60), 2,000 (HCT116) and 10,000 (3T3 and H9c2) cells/well. […] Viabilities of cells were determined using MTT assays (Sigma-Aldrich, Germany) according to the manufacturer's instructions on a Tecan Infinite 200M plate reader (Tecan, Austria). The proliferation/viability of treated groups was expressed as a percentage of the untreated controls (100%).
In general terms: Formazan colour is commonly taken as a measure of viable cells.

Details of data set [15]: method as in PMID 12203104. The settings on record: humans, single i.v. bolus; cited from earlier work.
The mark [16] stands for this setting: high concentration level (2.105-3.115 µmol·L-1).
Setting [17] is: low concentration level (0.035-0.156 µmol·L-1).
Setting [18] is: medium concentration level (0.702-1.558 µmol·L-1).

For the molecule `CCNC(=S)NN=C(c1ccccc1)c1ccccn1` [Bp4eT, 2-benzoylpyridine 4-ethyl-3-thiosemicarbazone], the “AUC of the amidrazone metabolite relative to the parent drug” value in data set [1] (rat, in vivo) is recorded as “≈ 20%”. For the same molecule, in [1] (rats), the elimination half-life is given as 1.4 h. Further, the “dose-corrected Cmax, fold higher than Dp44mT and DpC of the present study” value in data set [2] is reported as approximately 2 fold.
Turning to `CN(C=NN=C(c1ccccn1)c1ccccn1)C1CCCCC1` [DpC-A, N-cyclohexyl-N′-(di(pyridin-2-yl)methylene)-N-methylformohydrazonamide], the IC50 (as a rule, the point on the concentration scale where inhibition reaches its midpoint) was 32.3 ± 3.85 µM in [3]; 257 ± 73.6 µM in data set [4]; not below 19 µM in data set [5]; 34.1 ± 6.35 µM in data set [7]; 19.5 ± 6.27 µM in [9]; 640 ± 65.9 µM in data set [12]. The IC50 in data set [14] was not below 257 µM. Moreover, the “59Fe mobilization (in words)” value in the data set with MCF-7 cells [6] is recorded as “comparable (p > 0.05) to the control medium”. In addition, the Long-term stability in data set [8] (setting [16]) stood at 104.23%; in data set [8] (setting [17]), 87.83%; in data set [8] (setting [18]), 105.54%. The “decomposition on storage (in words)” value in data set [8] (up to 7 days stored at −80°C) and in data set [10] (24 h storage in the autosampler at 10°C) was “No significant decomposition” in each case. Further, the values for the Post-preparative stability in data set [10] (setting [16]), in [10] (setting [17]) and in data set [10] (setting [18]) were 99.55%, 101.11% and 93.89%, respectively. Further, in the data set with MCF-7 cells [11], the “inhibition of 59Fe uptake from 59Fe-transferrin (in words)” value is given as “loss of Fe chelation efficacy”. The “intracellular Fe chelation efficacy relative to parent chelator (100%)” value in data set [13] was 2.5%.
As for `NC(=S)NN=Cc1ncccc1N` [Triapine®, 3-aminopyridine-2-carboxaldehyde thiosemicarbazone], in data set [15], the half-life of elimination entry is given as “approximately 1 h”.
